Data reported in patent publication US12617864B2, “Methods of activating and proliferating exhausted CD8 T cells, CD8 T cells with enhanced activity prepared by the same, and uses thereof” (Medgene Therapeutics, Inc., priority 2021, dated 2026).

How the values were obtained:
Klf4 gene = Klf4 gene expression in CD8 T cells treated with APTO-253; type: cell-based, mice; conditions: 3 μM APTO-253 for 3 days (72 hours) during activation; compared to PBS-treated CD8 T cells
Experimental: (§1) Accordingly, in the same manner as above, after separating naïve CD8 T cells, naïve CD8 T cells were seeded on a plate coated with anti-CD3 antibody and in the process of activation, anti-CD28 antibody (2 μg/ml) and mIL-2 (100 U/ml) was treated with 3 μM of APTO-253 (MedChemExpress, LLC). Then, it was cultured for 72 hours in a 37° C. 5% CO2 cell incubator. After completion of the culture, the cells were transferred to a 15 ml centrifuge tube, and the volume was adjusted to 3 ml by adding RPMI medium. After that, 3 ml of Histopaque (Sigma) was carefully placed in the lower layer. Then, centrifugation was carried out for 30 minutes at 25° C. at 2,000 rpm, and at this time, acceleration and deceleration were set to a minimum. After centrifugation, the culture solution of the upper layer was removed, and the cells present at the interface were recovered, transferred to a 15 ml centrifuge tube, resuspended in 10 ml of PBS, and centrifuged for 5 minutes at 4° C. and 1,500 rpm. After centrifugation, the supernatant was removed, the cell pellet was washed once more with 10 mL of PBS and centrifuged for 5 minutes at 4° C. and 1,500 rpm. After centrifugation, the supernatant was removed, the cell pellet was resuspended in an appropriate amount of PBS, and the cells were counted. […]

MC38 cancer cells = test: Mouse tumor model: MC38 in Rag2 KO mice given CD8 T cells treated with APTO-253; conditions: 5×10^5 CD8 T cells treated ex vivo with APTO-253 for 3 days, i.v. the day after 3×10^5 MC38; until day 15; vs PBS-treated CD8 T cells
Experimental: as §1

[1] = system: CD8 T cells from OT-I transgenic mice; test: In vitro exhaustion experiment: repeated OVA peptide stimulation of CD8 T cells, gene expression by qRT-PCR; type: cell-based; conditions: repeated stimulation+IL-21 treatment group, OVA peptide 10 ng/ml for 5 days
Experimental: To this end, the present inventors specifically isolated CD8 T cells from OT-I transgenic mice having OVA (ovalbumin)-peptide-specific T cell receptor (TCR) and repeatedly treated the OVA peptide for 5 days. All experimental sets were treated with IL-15 (5 ng/ml) and IL-7 (5 ng/ml) to increase the viability of CD8 T cells. After treatment with OVA peptide (10 ng/ml) and washing the next day, stimulation was repeatedly applied for 5 days in such a way that cytokines and OVA peptide were treated with the same composition again (repeated stimulation treatment group). At this time, as a control group, only a cytokine-treated group without OVA peptide treatment and a single stimulation treatment group in which OVA peptide (10 ng/ml) was treated for 2 days and washed, and then only cytokine was treated for 3 days were added. In addition, a set treated with IL-21, which is known to help activate CD8 T cells, was also added (repetitive stimulation+IL-21 treated group) (FIG. 1A). After 5 days, live CD8 T cells were isolated using a cell sorter, RNA was extracted, reverse transcribed into cDNA, and the expression levels of various genes were confirmed by qRT-PCR. […]

Compound	Klf4 gene expression level in CD8 T cells (Klf4 gene)	tumor growth (tumor volume) (MC38 cancer cells)	expression of the Klf4 gene [1]	expression of the Tox gene ([1]; compared with repeated stimulation group)
Cc1[nH]c2ccc(F)cc2c1-c1nc2c3cccnc3c3ncccc3c2[nH]1 [APTO-253, 2-(5-fluoro-2-methyl-1H-indol-3-yl)-1H-imidazo[4,5-f][1,10]phenanthroline]	increased Klf4 gene expression level	decreased tumor growth	–	–
IL-21: cytokine known to help activate CD8 T cells	–	–	significantly increased	decreased
